From US20240327407A1, “NOVEL INHIBITORS OF AUTOTAXIN” (CADILA HEAL THCARE LIMITED, priority 2021, published 2024) come the findings set out here.

The assay deals with ATX (Mus musculus (Mouse), UniProt Q9R1E6). The assay can be described thus: Mice serum ATX inhibitory activity (IC50 determination). In kind it is biochemical. How it is done:
ATX Inhibitory activity was determined in a biochemical or whole blood assay as described previously (Bretschneider, T. et al., SLAS Discov 2017, 22, 425). The biochemical reaction consisted of 50 mM Tris (pH 8.0), 3 mM KCl, 1 mM CaCl2, 1 mM Mg Cl2, […] NaCl and 0.1% bovine serum albumin, which was supplemented with 5 nM recombinant rat ATX, 5 μM 18:1 LPC and the test compound (0.1-10 μM). The reaction was stopped at 2 h by the addition of butanol, prior to the RapidFire-MS-based analysis.
The whole blood assay consisted of 45 μL μL heparinized mice/rat whole blood and the test compound (0.12-100 μM). The reaction was stopped after 1 h at 37° C. by addition of 100 μL 40 mM disodium hydrogen phosphate buffer containing 30 mM citric acid (pH 4) and 1 μM 17:0 LPA (internal standard). Afterwards the samples were treated a described above and analysed by LC-MS/MS. The data was analyzed using graph pad prism (v 7.03) to arrive at the half-maximal inhibitory concentrations (IC50) of the test compounds.

By IC50 is commonly meant the concentration at which inhibition is half-maximal. In turn, `COc1ccc(C2CN(C)C(=O)C23CCN(C(=O)[C@H](NC(=O)c2cc(C(F)(F)F)ccc2F)C(C)C)CC3)cc1` (stereo partly drawn) [Compound 114, 2-fluoro-N-((2R)-1-(4-(4-methoxyphenyl)-2-methyl-1-oxo-2,8-diazaspiro[4.5]decan-8-yl)-3-methyl-1-oxobutan-2-yl)-5-(trifluoromethyl)benzamide] displayed an IC50 of 1.7 nM.
On to `CC(C)[C@@H](NC(=O)c1cc(C(F)(F)F)ccc1F)C(=O)N1CCC2(CC1)OC(=O)NC2c1ccccc1` (stereo partly drawn) [Compound 115, 2-fluoro-N-((2R)-3-methyl-1-oxo-1-(2-oxo-4-phenyl-1-oxa-3,8-diazaspiro[4.5]decan-8-yl)butan-2-yl)-5-(trifluoromethyl)benzamide], for which it took 74.4 nM to reach half-maximal inhibition (IC50).
Regarding `CC(C)[C@@H](NC(=O)c1cc(C(F)(F)F)ccc1F)C(=O)N1CCC2(CC1)CN(C)CC2c1ccc(F)cc1` (stereo partly drawn) [Compound 119, 2-fluoro-N-((2R)-1-(4-(4-fluorophenyl)-2-methyl-2,8-diazaspiro[4.5]decan-8-yl)-3-methyl-1-oxobutan-2-yl)-5-(trifluoromethyl)benzamide], the midpoint of inhibition, the IC50, lay at 7.1 nM.
`CC(C)[C@@H](NC(=O)c1cc(C(F)(F)F)ccc1F)C(=O)N1CCC2(CC1)CN(C(C)C)CC2c1ccc(F)cc1` (stereo partly drawn) [Compound 120, 2-fluoro-N-((2R)-1-(4-(4-fluorophenyl)-2-isopropyl-2,8-diazaspiro[4.5]decan-8-yl)-3-methyl-1-oxobutan-2-yl)-5-(trifluoromethyl)benzamide] had an IC50 of 44.4 nM.
The compound `CC(C)[C@@H](NC(=O)c1cc(C(F)(F)F)ccc1F)C(=O)N1CCC2(CC1)CN(CC1CC1)CC2c1ccc(F)cc1` (stereo partly drawn) [Compound 121, N-((2R)-1-(2-(cyclopropylmethyl)-4-(4-fluorophenyl)-2,8-diazaspiro[4.5]decan-8-yl)-3-methyl-1-oxobutan-2-yl)-2-fluoro-5-(trifluoromethyl)benzamide] registered a half-maximal inhibitory concentration (IC50) of 84.4 nM.
`COc1ccc(C2CN(C)CC23CCN(C(=O)[C@H](NC(=O)c2cc(C)ccc2F)C(C)C)CC3)cc1` (stereo partly drawn) [Compound 123, 2-fluoro-N-((2R)-1-(4-(4-methoxyphenyl)-2-methyl-2,8-diazaspiro[4.5]decan-8-yl)-3-methyl-1-oxobutan-2-yl)-5-methylbenzamide]: the IC50 turned out to be 9.3 nM.
With `Cc1ccnc(C(=O)N[C@@H](C(=O)N2CCC3(CC2)CN(C)CC3c2ccc(F)cc2)C(C)C)c1` (stereo partly drawn) [Compound 129, N-((2R)-1-(4-(4-fluorophenyl)-2-methyl-2,8-diazaspiro-[4.5]decan-8-yl)-3-methyl-1-oxobutan-2-yl)-4-methylpicolinamide], the IC50 was found to be 3.4 nM. This IC50 lies about 2.7-fold lower than the previous one.
With `COC(=O)N1CC(c2ccc(F)cc2)C2(CCN(C(=O)[C@H](NC(=O)c3cc(C(F)(F)F)ccc3F)C(C)C)CC2)C1` (stereo partly drawn) [Compound 130, methyl 8-((2-fluoro-5-(trifluoromethyl)benzoyl)-D-valyl)-4-(4-fluorophenyl)-2,8-diazaspiro[4.5]decane-2-carboxylate], the 50% inhibitory concentration (IC50) worked out at 59.7 nM.
The result for `CCOC(=O)N1CC(c2ccc(F)cc2)C2(CCN(C(=O)[C@H](NC(=O)c3cc(C(F)(F)F)ccc3F)C(C)C)CC2)C1` (stereo partly drawn) [Compound 131, ethyl 8-((2-fluoro-5-(trifluoromethyl)benzoyl)-D-valyl)-4-(4-fluorophenyl)-2,8-diazaspiro[4.5]decane-2-carboxylate] reads 150 nM; that for `CC(C)[C@@H](NC(=O)c1cc(C(F)(F)F)ccc1F)C(=O)N1CCC2(CC1)CN(C)CC2c1ccc(C(=O)O)cc1` (stereo partly drawn) [Compound 132, 4-(8-((2-fluoro-5-(trifluoromethyl)benzoyl)-D-valyl)-2-methyl-2,8-diazaspiro[4.5]decan-4-yl)benzoic acid], 1.1 nM.
As for `CC(C)[C@@H](NC(=O)c1cc(C(F)(F)F)ccc1F)C(=O)N1CCC2(CC1)CN(C)C[C@@H]2c1ccc(F)cc1` [Compound 133, 2-fluoro-N-((R)-1-((R)-4-(4-fluorophenyl)-2-methyl-2,8-diazaspiro[4.5]decan-8-yl)-3-methyl-1-oxobutan-2-yl)-5-(trifluoromethyl)benzamide], the figure is 12 nM.
`CC(C)[C@@H](NC(=O)c1cc(C(F)(F)F)ccc1F)C(=O)N1CCC2(CC1)CN(C)C[C@H]2c1ccc(F)cc1` [Compound 134, 2-fluoro-N-((R)-1-((S)-4-(4-fluorophenyl)-2-methyl-2,8-diazaspiro[4.5]decan-8-yl)-3-methyl-1-oxobutan-2-yl)-5-(trifluoromethyl)benzamide] gave an IC50 of 7.8 nM. This IC50 lies about 1.5-fold lower than the previous one.
The result for `Cc1ccc(C2CN(C)CC23CCN(C(=O)[C@H](NC(=O)c2cc(C(F)(F)F)ccc2F)C(C)C)CC3)cc1` (stereo partly drawn) [Compound 136, 2-fluoro-N-((2R)-3-methyl-1-(2-methyl-4-(p-tolyl)-2,8-diazaspiro[4.5]decan-8-yl)-1-oxobutan-2-yl)-5-(trifluoromethyl)benzamide] reads 2.2 nM.
On to `Cc1cc(C)cc(C2CN(C)CC23CCN(C(=O)[C@H](NC(=O)c2cc(C(F)(F)F)ccc2F)C(C)C)CC3)c1` (stereo partly drawn) [Compound 138, N-((2R)-1-(4-(3,5-dimethylphenyl)-2-methyl-2,8-diazaspiro[4.5]decan-8-yl)-3-methyl-1-oxobutan-2-yl)-2-fluoro-5-(trifluoromethyl)benzamide], for which the IC50 worked out at 40.4 nM.
In the case of `CN1CC(c2ccc(F)cc2)C2(CCN(C(=O)[C@H](NC(=O)c3cc(C(F)(F)F)ccc3F)c3ccccc3)CC2)C1` (stereo partly drawn) [Compound 140, 2-fluoro-N-((1R)-2-(4-(4-fluorophenyl)-2-methyl-2,8-diazaspiro[4.5]decan-8-yl)-2-oxo-1-phenylethyl)-5-(trifluoromethyl)benzamide], the IC50 stood at 11.5 nM.
With `CN1CC(c2ccc(F)cc2)C2(CCN(C(=O)[C@H](NC(=O)c3cc(C(F)(F)F)ccc3F)C3CCCCC3)CC2)C1` (stereo partly drawn) [Compound 142, N-((1R)-1-cyclohexyl-2-(4-(4-fluorophenyl)-2-methyl-2,8-diazaspiro[4.5]decan-8-yl)-2-oxoethyl)-2-fluoro-5-(trifluoromethyl)benzamide], the IC50 was determined as 4.4 nM.
Compound `CC(C)C[C@@H](NC(=O)c1cc(C(F)(F)F)ccc1F)C(=O)N1CCC2(CC1)CN(C)CC2c1ccc(F)cc1` (stereo partly drawn) [Compound 147, 2-fluoro-N-((2R)-1-(4-(4-fluorophenyl)-2-methyl-2,8-diazaspiro[4.5]decan-8-yl)-4-methyl-1-oxopentan-2-yl)-5-(trifluoromethyl)benzamide] displayed an IC50 of 4.1 nM.
On to `CC(C)[C@@H](NC(=O)c1cc(F)ccc1F)C(=O)N1CCC2(CC1)CN(C)CC2c1ccc(F)cc1` (stereo partly drawn) [Compound 149, 2,5-difluoro-N-((2R)-1-(4-(4-fluorophenyl)-2-methyl-2,8-diazaspiro[4.5]decan-8-yl)-3-methyl-1-oxobutan-2-yl)benzamide], for which the IC50 is 47.3 nM. Against the preceding compound, the IC50 is about 12-fold higher.
`CC(C)[C@@H](NC(=O)c1cc(Cl)ccc1Cl)C(=O)N1CCC2(CC1)CN(C)CC2c1ccc(F)cc1` (stereo partly drawn) [Compound 151, 2,5-dichloro-N-((2R)-1-(4-(4-fluorophenyl)-2-methyl-2,8-diazaspiro[4.5]decan-8-yl)-3-methyl-1-oxobutan-2-yl)benzamide] gave an IC50 of 130 nM.
As for `CC(C)[C@@H](NC(=O)c1nn(C)c2ccccc12)C(=O)N1CCC2(CC1)CN(C)CC2c1ccc(F)cc1` (stereo partly drawn) [Compound 153, N-((2R)-1-(4-(4-fluorophenyl)-2-methyl-2,8-diazaspiro[4.5]decan-8-yl)-3-methyl-1-oxobutan-2-yl)-1-methyl-1H-indazole-3-carboxamide], the figure is 48.4 nM.
